Test results reported in PubChem BioAssay (NCI).
Where “and” joins values, the source holds several entries; their conditions need not be identical. Equal entries are not always repeated.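 Tested at 5 concentrations; 48 h exposure; 96-well plates; endpoints linearly interpolated, else capped at highest concentration. GI50 marks 50% less growth. TGI: total growth inhibition.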

Key:
Assay in all cases: inhibition of tumour cell growth, NCI panel, 48 h
SW-620 colon = tested on: SW-620 colon
HOP-62 NSCLC = tested on: HOP-62 NSCLC
HS 578T breast = tested on: HS 578T breast
BT-549 breast = tested on: BT-549 breast
786-0 renal = tested on: 786-0 renal
HCC-2998 colon = tested on: HCC-2998 colon
ACHN renal = tested on: ACHN renal
K-562 leukemia = tested on: K-562 leukemia
RPMI-8226 leukemia = tested on: RPMI-8226 leukemia
KM20L2 colon = tested on: KM20L2 colon
HOP-18 NSCLC = tested on: HOP-18 NSCLC

| SMILES | TGI (SW-620 colon) | TGI (HOP-62 NSCLC) | TGI (HS 578T breast) | TGI (BT-549 breast) | TGI (786-0 renal) | TGI (HCC-2998 colon) | TGI (ACHN renal) | TGI (K-562 leukemia) | TGI (RPMI-8226 leukemia) | TGI (KM20L2 colon) | TGI (HOP-18 NSCLC) | GI50 (HOP-62 NSCLC) | GI50 (SW-620 colon) | GI50 (HOP-18 NSCLC) | GI50 (K-562 leukemia) | GI50 (RPMI-8226 leukemia) | GI50 (BT-549 breast) | GI50 (HCC-2998 colon) |
| --- | --- | --- | --- | --- | --- | --- | --- | --- | --- | --- | --- | --- | --- | --- | --- | --- | --- | --- |
| C[C@]12CC(c3ccccc3O1)C(C(=O)Nc1nc(C34CC5CC(CC(C5)C3)C4)cs1)C(=O)N2 (stereo not given in full) | > 100 µM | > 100 µM | > 100 µM | > 100 µM | > 100 µM | > 100 µM | > 100 µM | > 100 µM | > 100 µM | – | – | – | – | – | – | – | – | – |
| Clc1ccc(C[P+](c2ccccc2)(c2ccccc2)c2ccccc2)cc1Cl | 12.7 µM | 21.2 µM | – | – | 17 µM | 11.2 µM | 31.2 µM | > 100 µM | – | 13.7 µM | 11 µM | – | – | – | – | – | – | – |
| O=C1C(c2c(O)[nH]c3ccc(Br)cc23)=Nc2ccc(Br)cc21 | > 100 µM | > 100 µM | > 100 µM | > 100 µM | 46.9 µM | > 100 µM | > 100 µM | > 100 µM | > 100 µM | – | – | – | – | – | – | – | – | – |
| O=C1CSC(c2ccc(Cl)cc2Cl)N1c1ccc(Oc2ccc(Cl)cc2)c(Cl)c1 (stereo not given) | > 100 µM | 59.8 µM | 41.9 µM | 68.2 µM | 50.1 µM | > 100 µM | > 100 µM | > 100 µM | 68.3 µM | – | – | – | – | – | – | – | – | – |
| O=C(SCc1cccc2ccccc12)c1ccc(Cl)cc1 | > 100 µM | > 100 µM | > 100 µM | > 100 µM | > 100 µM | > 100 µM | > 100 µM | > 100 µM | > 100 µM | – | – | – | – | – | – | – | – | – |
| COc1cc2c(/C=C3/C(=O)N(C)c4ccc(O)cc43)c(Cl)[nH]c2cc1C | 21.3 µM | 3.94 µM | 28.9 µM | 15.8 µM | 15 µM | 0.85 µM | 16.8 µM | 11.7 µM | 4.7 µM | – | – | – | – | – | – | – | – | – |
| N/C1=C/C(=O)NC(=O)c2c(c3ccccc3oc2=O)C1 | > 100 µM | > 100 µM | > 100 µM | > 100 µM | > 100 µM | > 100 µM | > 100 µM | > 100 µM | > 100 µM | – | – | – | – | – | – | – | – | – |
| C/C(N=NS(=O)(=O)c1ccc([N+](=O)[O-])cc1)=C1\C=CC=CN1O | > 100 µM | > 100 µM | – | – | > 100 µM | > 100 µM | > 100 µM | > 100 µM | > 100 µM | > 100 µM | > 100 µM | – | – | – | – | – | – | – |
| Cc1cccc(CC(Cc2ccc(C)cc2C(=O)O)C(=O)O)c1 (stereo not given) | > 100 µM | > 100 µM | > 100 µM | > 100 µM | > 100 µM | > 100 µM | > 100 µM | > 100 µM | > 100 µM | – | – | – | – | – | – | – | – | – |
| CCCCOC(=O)C1CC[C@H]2[C@@H]3CCc4cc(OC(=O)c5cccc6c(=O)c7ccccc7[nH]c56)ccc4[C@H]3CC[C@]12C (stereo not given in full) | 30.5 µM | 16.4 µM | 39.7 µM | 15 µM | 17 µM | 15.8 µM | 15.6 µM | 21.4 µM | 20.6 µM | – | – | – | – | – | – | – | – | – |
| C=C=CC(NC(=O)c1ccccc1)(C(=O)O)C(F)(F)F (stereo not given) | > 100 µM | – | – | – | – | > 100 µM | > 100 µM | > 100 µM | > 100 µM | – | > 100 µM | – | – | – | – | – | – | – |
| Cc1ccc2nc(-c3ccc(C(C)(C)C)cc3)oc(=O)c2c1 | > 100 µM | 68.4 µM | 81.3 µM | 57.3 µM | 68.2 µM | 27.8 µM | 36.6 µM | 51 µM | 48.9 µM | – | – | – | – | – | – | – | – | – |
| C(=Nc1ccc(-c2nc3ccccc3s2)cc1)c1ccc[nH]1 | 53.8 µM | 27.6 µM | 53.4 µM | 46.2 µM | 52.4 µM | 31.9 µM | 60.7 µM | 66.6 µM | 55.9 µM | – | – | – | – | – | – | – | – | – |
| O=C(O)/C=C/c1c[nH]c(=O)[nH]c1=O | > 500 µM | > 250 µM | – | – | – | > 500 µM | – | > 500 µM | > 500 µM | > 500 µM | > 500 µM | > 250 µM | – | – | – | – | – | – |
| CC12CCC(CC1)C(C)(C)O2 | 89.7 µM | 52.2 µM | – | – | – | 97.7 µM | – | 183 µM | 173 µM | 116 µM | 88.5 µM | – | 9.09 µM | 16.7 µM | 37.9 µM | – | – | – |
| CC1(C)OC2OC(C(COS(=O)(=O)C(F)(F)F)N=[N+]=[N-])C(OC(=O)c3ccccc3)C2O1 (stereo not given) | > 100 µM | > 100 µM | > 100 µM | > 100 µM | > 100 µM | > 100 µM | > 100 µM | > 100 µM | > 100 µM | – | – | – | – | – | – | > 100 µM and 26.7 µM | – | – |
| Cn1c(=O)c2c(nc3sc4ccccc4c(=O)n32)n(C)c1=O | > 100 µM | > 100 µM | > 100 µM | > 100 µM | > 100 µM | > 100 µM | > 100 µM | > 100 µM | > 100 µM | – | – | – | – | – | – | – | – | – |
| Cc1ccc2c(c1)nc1n2C(N)=Nc2ccccc2S1 | > 100 µM | > 100 µM | > 100 µM | > 100 µM | > 100 µM | > 100 µM | > 100 µM | > 100 µM | > 100 µM | – | – | – | – | – | – | – | – | – |
| CC(C)=CC[C@]12CCN(C)[C@H]1N(S(=O)(=O)c1ccccc1)c1ccccc12 | > 100 µM | > 77.6 µM | > 90 µM | > 100 µM | > 90.9 µM | > 61.4 µM | > 100 µM | > 100 µM | > 73 µM | – | – | – | – | – | – | – | – | – |
| CC1(C)COC2=C(C1)C(=O)c1ccccc1C2=O | 4.03 µM | 3.45 µM | 7.95 µM | 3.66 µM | 3.29 µM | 3.08 µM | 2.9 µM | 1.52 µM | 4.45 µM | – | – | – | – | – | – | – | – | – |
| COC(=O)C1(SC)C2CCC3C2CCC31 (stereo not given) | > 100 µM | > 100 µM | > 100 µM | > 100 µM | > 100 µM | > 100 µM | > 100 µM | > 100 µM | > 100 µM | – | – | – | – | – | – | – | – | – |
| CC(=O)OCC1OC(n2c(S)c(C#N)c(-c3ccccc3)c(C#N)c2=O)C(OC(C)=O)C(OC(C)=O)C1OC(C)=O (stereo not given) | > 100 µM | 52.9 µM and 75.7 µM | > 100 µM | > 100 µM and 59.1 µM | > 100 µM and 83.4 µM | > 100 µM and 32.9 µM | > 100 µM | > 100 µM | > 100 µM and 75 µM | – | – | – | > 100 µM and 49.9 µM | – | – | > 100 µM and 35 µM | > 66.8 µM and 21.1 µM | > 100 µM and 18 µM |
| O=C(O)[C@H](CCC[C@H]1C(=O)O[C@H](c2ccccc2)[C@H](c2ccccc2)N1C(=O)OCc1ccccc1)N[C@@H](c1ccccc1)[C@H](O)c1ccccc1 | 68.5 µM | 39 µM | 58.9 µM | 78.9 µM | > 100 µM | 44 µM | > 100 µM | > 100 µM | 54 µM | – | – | – | – | – | – | – | – | – |
| CN(CCNC(=O)c1c[nH]c2c1Cc1ccccc1-2)CCNC(=O)c1c[nH]c2c1Cc1ccccc1-2 | > 100 µM | > 100 µM | > 100 µM | > 100 µM | 44.8 µM | > 100 µM | > 100 µM | > 100 µM | 73.4 µM | – | – | – | – | – | – | – | – | – |
| COC1(CC[C@@H](C)COC2OC(CO)C(O)C(O)C2O)O[C@H]2C[C@H]3[C@@H]4CC=C5C[C@@H](OC6OC(CO)C(O)C(OC7OC(CO)C(O)C(O)C7O)C6OC6OC(C)C(O)C(O)C6O)CC[C@]5(C)[C@H]4CC[C@]3(C)[C@H]2[C@@H]1C (stereo not given in full) | 6.51 µM | 24.3 µM | 22.2 µM | 31.8 µM | 8.33 µM | 10.6 µM | 30.1 µM | > 62.8 µM | > 88.3 µM | – | – | – | – | – | – | – | – | – |
| CC(=O)OCC1OC(n2c(Br)nc3c2c(=O)n(C)c(=O)n3C)C(OC(C)=O)C1OC(C)=O (stereo not given) | > 100 µM | > 100 µM | > 100 µM | > 100 µM | > 100 µM | > 100 µM | > 100 µM | > 100 µM | 95.6 µM | – | – | – | – | – | – | – | – | – |
